Experimental data as given in patent US4537893A, “Octahydrothiazolo[4,5-g]quinolines and use as prolactin secretion inhibitors” (Eli Lilly and Company, priority 1984, dated 1985).

Assays:
[1] = tested on: 6-hydroxydopamine-lesioned rats (nigroneostriatal-lesioned); test: Turning behavior in 6-hydroxydopamine-lesioned rats (Table 2); format: in vivo, rat; conditions: for Average No. of turns per rat: first 15 minutes after end of latency period
Text: In this test, nigroneostriatal-lesioned rats are employed, as prepared by the procedure of Ungerstedt and Arbuthnott, Brain Res, 24, 485 (1970). A compound having dopamine agonist activity causes the rats to turn in circles contralateral to the side of the lesion. After a latency period, which varies from compound to compound, the number of turns is counted over a 15-minute period.

prolactin secretion = test: Inhibition of prolactin secretion in reserpine-treated male rats (Table 1); format: in vivo, rat (Sprague-Dawley); conditions: 50 mcg/kg i.p., 1 h after treatment
Procedure: As previously stated, the drugs of this invention as represented by formulas I and III above are D-2 dopamine agonists.
Adult male rats of the Sprague-Dawley strain weighing about 200 g. were housed in an air-conditioned room with controlled lighting (lights on 6 a.m.-8 p.m.) and fed lab chow and water ad libitum. Each rat received an intraperitoneal injection of 2.0 mg. of reserpine in aqueous suspension 18 hours before administration of the test drug. The purpose of the reserpine was to keep the rat prolactin levels uniformly elevated. The compound was dissolved in 10 percent ethanol, and injected intraperitoneally at doses of 0.017, 0.03, 0.17 and 0.3μ moles/kg. The compound was administered at each dose level to a group of 10 rats, and a control group of 10 intact males received an equivalent amount of 10 percent ethanol. One hour after treatment, all rats were killed by decapitation, and 150 μl aliquots of serum were assayed for prolactin.
The difference between the prolactin level of the treated rats and prolactin level of the control rats, divided by the prolactin level of the control rats, gives the percent inhibition of prolactin secretion attributable to the given dose. Inhibition percentages are given in Tables 1 and 2 below for compounds according to I or III above respectively. […]

SMILES	% Rats exhibiting turning behaviour ([1]; dose 1000 mcg/kg) [%]	Average No. of turns per rat ([1]; dose 1000 mcg/kg) [turns per rat]	% Rats exhibiting turning behaviour ([1]; dose 20 mcg/kg) [%]	Average No. of turns per rat ([1]; dose 20 mcg/kg) [turns per rat]	% Rats exhibiting turning behaviour ([1]; dose 100 mcg/kg) [%]	Average No. of turns per rat ([1]; dose 100 mcg/kg) [turns per rat]	Percent Inhibition of Prolactin Secretion (prolactin secretion) [%]
CCCN1CCC[C@H]2Cc3nc(N(C)C)sc3C[C@@H]21 (racemic) [n-Pr, N(CH3)2, 2HCl, trans (±), trans-(±)-2-dimethylamino-5-n-propyl-4,4a,5,6,7,8,8a,9-octahydrothiazolo[4,5-g]quinoline]	100	62	–	–	–	–	–
CCCN1CCC[C@H]2Cc3nc(Br)sc3C[C@@H]21 (racemic) [n-Pr, Br, 2HCl, Trans-(±), Trans-(±)-2-bromo-5-n-propyl-4,4a,5,6,7,8,8a,9-octahydrothiazolo[4,5-g]quinoline]	100	42	–	–	–	–	–
CCCN1CCC[C@@H]2Cc3nc(N)sc3C[C@H]21 [n-Pr, NH2, 2HCl, trans-(-), 4aR,8aR-2-amino-5-n-propyl-4,4a,5,6,7,8,8a,9-octahydrothiazolo[4,5-g]quinoline]	100	109	100	37	80	102	–
CCCN1CCC[C@H]2Cc3nc(N4CCCC4)sc3C[C@@H]21 (racemic) [n-Pr, 1-pyrrolidinyl, FB, Trans-(±), Trans-(±)-2-(1-pyrrolidinyl)-5-n-propyl-4,4a,5,6,7,8,8a,9-octahydrothiazolo[4,5-g]quinoline]	100	67	–	–	–	–	–
Br.Br.CCCN1CCC[C@H]2Cc3nc(N)sc3C[C@@H]21 (racemic) [n-Pr, NH2, 2HBr, trans (±), trans-(±)-2-amino-5-n-propyl-4,4a,5,6,7,8,8a,9-octahydrothiazolo[4,5-g]quinoline dihydrobromide]	–	–	0	–	78	51	–
CCCN1CCC[C@H]2Cc3ncsc3C[C@@H]21.Cl.Cl (racemic) [n-Pr, H, 2HCl, trans-(±), trans-(±)-5-n-propyl-4,4a,5,6,7,8,8a,9-octahydrothiazolo[4,5-g]quinoline dihydrochloride]	100	100	25	16	100	44	–
CCC[N+]1(C)CCCC2Cc3scnc3CC21.I.[I-] (racemic) [n-Pr, H, HI methiodide, trans-(±), trans-(±)-5-n-propyl-4,4a,5,6,7,8,8a,9-octahydrothiazolo[4,5-g]quinolinium methiodide hydroiodide]	–	–	–	–	–	–	30
CCCN1CCC[C@H]2Cc3nc(NC)sc3C[C@@H]21.Cl.Cl (racemic) [n-Pr, NHCH3, 2HCl, trans (±), trans-(±)-2-methylamino-5-n-propyl-4,4a,5,6,7,8,8a,9-octahydrothiazolo[4,5-g]-quinoline dihydrochloride]	100	100	75	27	100	80	–
CCCN1CCC[C@H]2Cc3nc(NC(C)=O)sc3C[C@@H]21 (racemic) [n-Pr, NHCOCH3, FB, trans-(±), Trans-(±)-2-acetylamino-5-n-propyl-4,4a,5,6,7,8,8a,9-octahydrothiazolo[4,5-g]quinoline]	100	91	–	–	–	–	–
